Assay results from PMC7653765 (BMC Complementary Medicine and Therapies, 2020).
Like-named read-outs stand apart in the source and are kept apart here.

System: 3 T3-L1 adipocytes
Experiment: Adipocyte glucose uptake test
Type: cell-based, mouse
Description: The 3 T3-L1 mouse embryonic fibroblasts were cultured for induction of adipogenesis, and […] 3 T3-L1 adipocytes were plated for glucose uptake. Krebs-Ringer-Phosphate-HEPES (KRPH) buffer was used to prepare 10-point 3-fold gradient diluted samples. After starvation, the adipocytes were rinsed with KRPH buffer. Ninety μL of gradient-diluted samples of different concentrations were added to each well with high- and low-signal control wells and incubated in a CO2 incubator for 30 min. Add 10 μL/well of KRPH buffer containing 0.25 μCi1- [3H] -deoxyglucose and 50 μM 2-deoxyglucose and incubate in a CO2 incubator for 20 min. Wash the cells with DPBS containing 10 mM glucose at 4 °C. Lysate fat cells with sodium hydroxide solution, transfer to scintillation tube, add scintillation fluid, and count with TriCarb.

[1] = mean ± SEM of 3 repeats, read-out: EC50, fat cell glucose uptake, Mean ± SEM
[2] = read-out: EC50, fat cell glucose uptake, N = 1, replicate N = 1, 3 T3-L1 adipocytes, 30 min sample, 20 min [3H]-deoxyglucose
[3] = read-out: EC50, fat cell glucose uptake, N = 2, replicate N = 2
[4] = read-out: EC50, fat cell glucose uptake, N = 3, replicate N = 3

| Substance | EC50 [1] [nM] | EC50 [2] [nM] | EC50 [3] [nM] | EC50 [4] [nM] |
| --- | --- | --- | --- | --- |
| S-Insulin: recombinant human-derived insulin from Sigma, a regular insulin, standard control | 3.7 ± 0.5 | 2.5 | 5.3 | 3 |
| H-Insulin: recombinant human insulin injection obtained from Lilly, a regular insulin | 1.8 ± 0.2 | 0.9 | 1.7 | 2.2 |
